The source made the active and inactive calls. The rule behind the calls is not given here.

The nature of data set [1]: Cytotoxicity against NOD2 expressing HEK-Blue cells assessed as residual metabolic activity at 20 uM after 18 hrs by MTS assay relative to control. The class given is ADME, cell-based. As to conditions: human, read-out: Activity. A general note: Tetrazolium dyes change colour on reduction, which living cells bring about.
In data set [2] the target is T1, Nucleotide-binding oligomerization domain-containing protein 2 (Homo sapiens, UniProt Q9HC29). In words: Agonist activity at NOD2 receptor (unknown origin) expressed in HEK-Blue cells assessed as NF-kappaB transcriptional activity at 20 uM after 18 hrs by secreted embryonic alkaline phosphatase reporter gene assay relative to untreated control. The class given is cell-based. A general note: A reporter such as luciferase makes a cellular process visible.
T1 sequence (Q9HC29 whole entry, the tested form may be a part): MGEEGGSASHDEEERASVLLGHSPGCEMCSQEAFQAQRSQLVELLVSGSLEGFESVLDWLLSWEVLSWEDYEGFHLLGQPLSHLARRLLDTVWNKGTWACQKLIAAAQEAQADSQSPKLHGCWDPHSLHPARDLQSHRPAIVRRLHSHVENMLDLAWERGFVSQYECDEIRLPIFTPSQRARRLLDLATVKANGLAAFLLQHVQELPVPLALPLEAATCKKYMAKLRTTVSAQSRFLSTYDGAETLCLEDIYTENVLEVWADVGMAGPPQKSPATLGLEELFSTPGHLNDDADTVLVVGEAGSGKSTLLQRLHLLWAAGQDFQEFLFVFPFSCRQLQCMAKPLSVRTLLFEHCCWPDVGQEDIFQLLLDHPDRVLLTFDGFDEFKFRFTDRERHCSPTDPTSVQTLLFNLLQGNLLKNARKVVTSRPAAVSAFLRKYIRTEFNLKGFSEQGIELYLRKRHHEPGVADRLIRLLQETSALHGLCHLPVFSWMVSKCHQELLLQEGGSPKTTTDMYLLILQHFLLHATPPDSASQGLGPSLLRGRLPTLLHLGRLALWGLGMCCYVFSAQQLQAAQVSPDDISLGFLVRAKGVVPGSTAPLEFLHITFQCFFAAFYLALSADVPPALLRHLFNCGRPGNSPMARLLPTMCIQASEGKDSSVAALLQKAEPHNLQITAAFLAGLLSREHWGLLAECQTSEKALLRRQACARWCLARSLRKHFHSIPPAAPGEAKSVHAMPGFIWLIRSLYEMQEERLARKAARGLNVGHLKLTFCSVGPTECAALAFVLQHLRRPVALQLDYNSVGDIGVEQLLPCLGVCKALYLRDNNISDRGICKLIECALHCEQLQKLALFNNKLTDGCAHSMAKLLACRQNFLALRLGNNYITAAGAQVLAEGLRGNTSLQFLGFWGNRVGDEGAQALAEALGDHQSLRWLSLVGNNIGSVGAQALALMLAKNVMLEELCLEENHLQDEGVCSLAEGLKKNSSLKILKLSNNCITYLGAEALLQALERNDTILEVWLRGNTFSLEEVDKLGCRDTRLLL

Data set [3] addresses T2, Nucleotide-binding oligomerization domain-containing protein 1 (Homo sapiens) (UniProt Q9Y239).
T2 sequence (whole entry): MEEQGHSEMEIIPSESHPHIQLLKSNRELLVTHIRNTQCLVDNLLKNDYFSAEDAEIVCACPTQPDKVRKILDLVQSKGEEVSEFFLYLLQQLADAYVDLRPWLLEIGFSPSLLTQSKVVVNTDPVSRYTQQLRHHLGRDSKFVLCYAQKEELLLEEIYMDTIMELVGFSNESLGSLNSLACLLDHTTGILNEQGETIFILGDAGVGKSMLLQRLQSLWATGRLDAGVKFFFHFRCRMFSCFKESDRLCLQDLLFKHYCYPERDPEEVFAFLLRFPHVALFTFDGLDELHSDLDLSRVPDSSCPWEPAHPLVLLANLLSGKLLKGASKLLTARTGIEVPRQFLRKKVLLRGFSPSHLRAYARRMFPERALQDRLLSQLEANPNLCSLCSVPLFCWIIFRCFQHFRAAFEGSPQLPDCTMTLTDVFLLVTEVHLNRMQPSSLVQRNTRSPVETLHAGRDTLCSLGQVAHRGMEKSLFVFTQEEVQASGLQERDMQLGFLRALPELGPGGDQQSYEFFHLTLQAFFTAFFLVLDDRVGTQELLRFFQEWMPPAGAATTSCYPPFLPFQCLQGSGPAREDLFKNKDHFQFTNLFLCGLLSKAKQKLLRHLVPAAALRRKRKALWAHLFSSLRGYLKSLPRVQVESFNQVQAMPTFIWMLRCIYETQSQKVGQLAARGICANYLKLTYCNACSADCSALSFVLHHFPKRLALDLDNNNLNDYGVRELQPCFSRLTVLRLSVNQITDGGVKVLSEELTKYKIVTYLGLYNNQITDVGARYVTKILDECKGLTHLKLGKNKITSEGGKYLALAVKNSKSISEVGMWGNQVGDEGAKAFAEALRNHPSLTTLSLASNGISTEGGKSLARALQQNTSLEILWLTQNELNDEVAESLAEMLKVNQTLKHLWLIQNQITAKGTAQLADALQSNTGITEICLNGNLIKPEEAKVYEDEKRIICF
The data set can be described thus: Agonist activity at NOD1 receptor (unknown origin) expressed in HEK-Blue cells assessed as NF-kappaB transcriptional activity at 20 uM after 18 hrs by secreted embryonic alkaline phosphatase reporter gene assay. The class given is cell-based.

Data set [4] concerns the target T1, Nucleotide-binding oligomerization domain-containing protein 2. In words: Agonist activity at NOD2 receptor (unknown origin) expressed in HEK-Blue cells assessed as NF-kappaB transcriptional activity after 18 hrs by secreted embryonic alkaline phosphatase reporter gene assay. The class given is cell-based.

Consider `CCOC(=O)CC[C@@H](NC(=O)[C@H](C)NC(=O)CNC(=O)C1Cc2ccccc2N1)C(=O)OCC` (some centres not stated), for which the viability at 18 h, 20 µM in data set [1] is not below 80%. In data set [2], the fold change (FC) turned out to be 3.17. For the same compound, in data set [3], the result was inactive.
For the compound `CCOC(=O)CC[C@@H](NC(=O)[C@H](C)NC(=O)CNC(=O)c1cc2cc(-c3ccccc3)ccc2[nH]1)C(=O)OCC`, the viability at 18 h, 20 µM in data set [1] was not below 80%. Further, in data set [2], the fold change (FC) was determined as 10.4. In addition, the outcome in data set [3] was inactive.
The like results for `CCOC(=O)CC[C@@H](NC(=O)[C@H](C)NC(=O)CNC(=O)C1Cc2ccccc2N1C(=O)OC(C)(C)C)C(=O)OCC` (some centres not stated) were, in that order, not below 80%, 2.58 and “inactive”.
The term EC50 denotes the concentration that produces a half-maximal response. Regarding `CCOC(=O)CC[C@@H](NC(=O)[C@H](C)NC(=O)CNC(=O)c1cc2ccc(-c3ccccc3)cc2[nH]1)C(=O)OCC`, the viability at 18 h, 20 µM in data set [1] is not below 80%. Moreover, in data set [2], the fold change (FC) is 11.2. Also, the outcome in data set [3] was inactive. Also, in data set [4], the Activity entry was “Dose-dependent effect” and the EC50 was determined as 2880 nM.
Take `Cc1nc(CC[C@@H](NC(=O)[C@H](C)NC(=O)CNC(=O)c2cc3ccccc3[nH]2)c2noc(C)n2)no1`: the viability at 18 h, 20 µM in data set [1] was not below 80%. For the same compound, the result in data set [2] and in data set [3] was inactive.
Take `CCOC(=O)CC[C@@H](NC(=O)[C@H](C)NC(=O)CNC(=O)c1cc2cccc(-c3ccccc3)c2[nH]1)C(=O)OCC`: the viability at 18 h, 20 µM in data set [1] was not below 80%. The fold change (FC) in data set [2] amounted to 6.51. Further, the result in data set [3] was inactive.
The like results for `CCOC(=O)CC[C@@H](NC(=O)[C@H](C)NC(=O)CNC(=O)C(=O)Nc1ccccc1)C(=O)OCC` were, in that order, not below 80%, 1.15 and “inactive”.
The like results for `CCOC(=O)CC[C@@H](NC(=O)[C@H](C)NC(=O)CNC(=O)/C=C/c1ccccc1)C(=O)OCC` were, in that order, not below 80%, 7.37 and “inactive”.
The like results for `CCOC(=O)CC[C@@H](NC(=O)[C@H](C)NC(=O)CNC(=O)c1cc2ccccc2n1C)C(=O)OCC` were, in that order, not below 80%, 2.14 and “inactive”.
As to `CCOC(=O)CC[C@@H](NC(=O)[C@H](C)NC(=O)CNC(=O)c1c[nH]c2ccccc12)C(=O)OCC`, the viability at 18 h, 20 µM in data set [1] is not below 80%. Also, the fold change (FC) in data set [2] is 1.22. The result in data set [3] was inactive.
On the same counts, the results for `CCOC(=O)CC[C@@H](NC(=O)[C@H](C)NC(=O)CCNC(=O)c1cc2ccccc2[nH]1)C(=O)OCC` are not below 80%, 1.41 and “inactive”.
As to `CCOC(=O)CC[C@@H](NC(=O)[C@H](C)NC(=O)CNC(=O)c1cc2ccccc2[nH]1)C(=O)OCC`, the fold change (FC) in data set [2] was 5.2. Also, in data set [3], the result was inactive.
With `C[C@H](NC(=O)CNC(=O)c1cc2ccccc2[nH]1)C(=O)N[C@H](CCC(=O)OCc1ccccc1)C(=O)OCc1ccccc1`, the viability at 18 h, 20 µM in data set [1] was not below 80%. The fold change (FC) in data set [2] was 8.82. Further, the outcome in data set [3] was inactive.
For the compound `CCOC(=O)CC[C@@H](NC(=O)[C@H](C)NC(=O)CNC(=O)c1cc2ccccc2n1Cc1ccc(F)cc1)C(=O)OCC`, the viability at 18 h, 20 µM in data set [1] is not below 80%. Further, the fold change (FC) in data set [2] was 2.8. Also, in data set [3], the result was inactive.
The like results for `C[C@H](NC(=O)CNC(=O)c1cc2ccccc2[nH]1)C(=O)N[C@H](CCC(=O)O)C(=O)O` were, in that order, not below 80%, 2.1 and “inactive”.
For `CCOC(=O)CC[C@@H](NC(=O)[C@H](C)NC(=O)CNC(=O)c1cc2c(-c3ccccc3)cccc2[nH]1)C(=O)OCC`, the viability at 18 h, 20 µM in data set [1] was not below 80%. The fold change (FC) in data set [2] was 2.95. The outcome in data set [3] was inactive.
On the same counts, the results for `CCOC(=O)CC[C@@H](NC(=O)[C@H](C)NC(=O)CNC(=O)c1ccc[nH]1)C(=O)OCC` are not below 80%, 1.08 and “inactive”.
In the case of `CC(=O)N[C@H]1C(O)O[C@H](CO)[C@@H](O)[C@@H]1O[C@H](C)C(=O)N[C@@H](C)C(=O)N[C@H](CCC(=O)O)C(N)=O` (some centres not stated) [MURAMYL DIPEPTIDE], the fold change (FC) in data set [2] was 11.5. Besides, the result in data set [3] was inactive. Moreover, in data set [4], the Activity entry was “Dose-dependent effect” and the EC50 is 46 nM.
With `CCOC(=O)CC[C@@H](NC(=O)[C@H](C)NC(=O)CNC(=O)c1cc2cc(F)ccc2[nH]1)C(=O)OCC`, the viability at 18 h, 20 µM in data set [1] was not below 80%. The fold change (FC) in data set [2] amounted to 3.02. Also, the result in data set [3] was inactive.
The like results for `CCOC(=O)CC[C@@H](NC(=O)[C@H](C)NC(=O)CNC(=O)c1cc2cc(Br)ccc2[nH]1)C(=O)OCC` were, in that order, not below 80%, 4.58 and “inactive”.

The record behind these values is ChEMBL document CHEMBL3797113, “Structural requirements of acylated Gly-l-Ala-d-Glu analogs for activation of the innate immune receptor NOD2” (Eur J Med Chem, 2016).
